Test results: article PMC7407272, “Induction of Lysosome Membrane Permeabilization as a Therapeutic Strategy to Target Pancreatic Cancer Stem Cells” (Cancers, 2020)
pEC50, pIC50: −log10 of the molar value. Where two headings read alike, the source gives them in different places.

Key:
HASPIN = target: T1, HASPIN (Homo sapiens, UniProt Q8TF76); assay: HASPIN ADP GLO kinase assay; assay type: biochemical; set-up: purchased ProQinase, Freiburg, Germany; conditions: 150 μM ATP
T1 sequence (Q8TF76 1-798): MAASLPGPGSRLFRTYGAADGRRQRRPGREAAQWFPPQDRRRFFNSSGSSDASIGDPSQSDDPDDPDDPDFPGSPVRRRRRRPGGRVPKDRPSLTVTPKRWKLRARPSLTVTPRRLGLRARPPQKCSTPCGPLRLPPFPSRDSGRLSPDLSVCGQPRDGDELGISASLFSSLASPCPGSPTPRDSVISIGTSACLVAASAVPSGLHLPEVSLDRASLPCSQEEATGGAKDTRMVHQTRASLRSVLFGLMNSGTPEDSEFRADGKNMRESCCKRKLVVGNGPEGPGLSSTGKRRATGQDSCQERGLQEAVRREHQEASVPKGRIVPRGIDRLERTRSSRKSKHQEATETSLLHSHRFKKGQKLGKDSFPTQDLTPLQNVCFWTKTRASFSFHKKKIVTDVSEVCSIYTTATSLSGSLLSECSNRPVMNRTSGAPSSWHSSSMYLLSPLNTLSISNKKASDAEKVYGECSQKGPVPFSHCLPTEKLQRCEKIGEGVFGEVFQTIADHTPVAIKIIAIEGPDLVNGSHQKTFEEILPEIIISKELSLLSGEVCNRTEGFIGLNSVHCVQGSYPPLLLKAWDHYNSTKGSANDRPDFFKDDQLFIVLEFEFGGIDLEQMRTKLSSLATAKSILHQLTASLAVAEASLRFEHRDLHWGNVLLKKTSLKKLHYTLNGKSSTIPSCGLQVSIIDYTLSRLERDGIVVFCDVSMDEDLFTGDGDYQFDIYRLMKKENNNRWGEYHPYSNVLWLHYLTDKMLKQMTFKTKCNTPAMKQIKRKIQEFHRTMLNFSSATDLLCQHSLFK
Protocol: PIM1/3 kinase activities were measured as previously described in Martínez-Gonzalez et al.. HASPIN activity was measured using the commercial ADP GLO assay (Promega), a homogeneous assay measuring ADP accumulation, as a universal product of kinase activity. The assay was done following general manufacturer recommendations and adapting protein to optimal conditions.

PDAC2 3D spheres = assay: Viability curves on PDAC2 3D spheres; assay type: cell-based, human; conditions: for pEC50: Homo sapiens
Source text: The PDAC patient-derived xenograft (PDX) Panc354 (referred to hereafter as PDAC3) was obtained from Dr. Manuel Hidalgo under a Material Transfer Agreement with the Spanish National Cancer Centre (CNIO), Madrid, Spain (Reference no. I409181220BSMH). PDAC1, PDAC2 and PDAC4 PDXs were established from primary patient resected tumors. Samples were provided by the BioBank Hospital Ramón y Cajal-IRYCIS (PT13/0010/0002), integrated in the Spanish National Biobanks Network and they were processed following standard operating procedures with the appropriate approval of the Ethical and Scientific Committees (Control no. No. Control: DE-BIOB-73 AC65, RG.BIOB-96 REV, and CI-BIOB-08-10-01 rev), with informed consent and according to Declaration of Helsinki principles. Primary patient tumors were subcutaneously implanted in immunocompromised female 6- to 8-week-old NU-Foxn1nu nude mice (Envigo, Barcelona, Spain) and subsequently passage in vivo to establish PDX PDAC1, PDAC2 and PDAC4. Primary PDX-derived in vitro cultures were established as previously detailed. Briefly, xenografts were minced, enzymatically digested with collagenase (Stem Cell Technologies) for 60 min at 37 °C and after centrifugation for 5 min at 1800 rpm, the cell pellets were resuspended and cultured in RPMI (1:1; #61870-010; Gibco, Waltham, MA, USA) supplemented with 10% FBS (Invitrogen, Waltham, MA, USA), Pen/Strep (1:100; #1500-063; Gibco, Waltham, MA, USA), and Fungizone (1:250; #15290-018; Gibco, Waltham, MA, USA). Primary cultures were tested for Mycoplasma at least every 4 weeks.
(§1) Pancreatic CSC spheres were generated as previously described in ultra-low attachment plates (Corning) using CSC media: serum-free DMEM/F12 medium (1:1; #21331-020; Gibco, Waltham, MA, USA), supplemented with Pen/Strep (1:100; #1500-063; Gibco, Waltham, MA, USA), Fungizone (1:250; #15290-018; Gibco), L-Glutamine (1:100; #25030-024; Gibco, Waltham, MA, USA), B-27 (1:50; #17504-044; Gibco, Waltham, MA, USA) and basic fibroblast growth factor (FGF-b) (1:5000; Gibco, Waltham, MA, USA). All cell culture was carried out at 37 °C in a 5% CO2 humidified incubator. To quantify spheres of > 40 μm, 1 mL of sample volume was analyzed with a CASY® Cell Counter (Roche Applied Sciences, Mannheim, Germany). The CASY® Cell Counter measuring principle is based on a capillary particle counter with pulse area analysis, that permits the determination of cell count, cell concentration, cell volume (peak), and average cell diameter, specifically diameters of 40–80 μm, 80–120 μm and >120 μm.
Murine embryonic stem cells (mESCs) were plated at 20,000 cells per well in gelatinized 96 well plates. Compounds from the 640 compound ETP library were added by a Beckman FX 96 tip to achieve a final concentration of 5 µM in each well, and each compound was tested in duplicate. Cells were treated for a total of 30 h prior to assessing cell viability using CellTiter 96® AQueous One Solution Cell Proliferation Assay (MTS) assay according to manufacturer’s instructions (G3582, Promega, Madison, WI, USA). Dose response curves were carried out on mESCs under the same conditions using indicated compounds. To test the viability of CSCs, 10,000 PDAC cells were plated in spheroid conditions and immediately treated with indicated compounds and concentrations for the duration of the sphere formation assay. […]

PDAC3 cultures = assay: Sphere formation assay; assay type: cell-based, human; conditions: 1.25 or 2.5 µM
Source text: as §1

PDAC1 cultures = assay: Sphere formation assay; assay type: cell-based, human; conditions: 1.25 or 2.5 µM
Source text: as §1

pIC50 (HASPIN) | Structure (SMILES) | pIC50 (HASPIN; kinase orthogonal assay) | prevention of the effect on PDAC2 CSC survival by Bafilomycin-A (PDAC2 3D spheres; 100 nM Bafilomycin 5 h pretreatment) | pEC50 (PDAC2 3D spheres; PDAC-2, 72 h, no Bafilomycin, read-out: EC50 (viability), PDAC2 spheres) | pEC50 (PDAC2 3D spheres; PDAC-2, pretreated with 100 nM Bafilomycin for 5 h, then 72 h, read-out: EC50 (viability), PDAC2 spheres, +Baf) | sphere forming capacity (PDAC3 cultures) | sphere forming capacity (PDAC1 cultures) | pEC50 (PDAC2 3D spheres; PDAC-2, 30 h, read-out: EC50 (viability), PDAC2 spheres)
< 5.00 | COc1nc2ccc(NCC3CCN(C)CC3)nn2c1C(=O)Nc1cccc(OC(F)(F)F)c1 [Cpd 1] | – | – | – | – | – | – | –
– | CN1CCC(CNc2ccc3ncc(C(=O)Nc4cccc(OC(F)(F)F)c4)n3n2)CC1 [Cpd 2] | 6.04 | ≈ 3 fold | 5.42 | 5.04 | decreased sphere forming capacity | decreased sphere forming capacity | –
– | Fc1ccc(-n2cc(CCCCN3CCC4(CC3)OCc3ccccc34)c3ccccc32)cc1 [siramesine] | – | – | – | – | decreased sphere forming capacity | decreased sphere forming capacity | 5.22
